pIC50: −log10 of the molar value. Starred links: 1 amine or outer side, 2 acyl side, 3 side chain; linkers in the order of their positions; H or OH if unused. Positions of bridges follow the written chain, without caps; N, C: chain ends. Non-standard residues stand in square brackets, D forms with d. Residues, ends and D or L forms follow the SMILES beside them. *: point of attachment. hPhe(3-Cl-4-CF3) = N[C@@H](CCc1ccc(C(F)(F)F)c(Cl)c1)C(=O)O; hPhe(3-F,4-CF3) = N[C@@H](CCc1ccc(C(F)(F)F)c(F)c1)C(=O)O; NMePhe(3-CF3) = CN[C@@H](Cc1cccc(C(F)(F)F)c1)C(=O)O; NMePhe(4-CF3) = CN[C@@H](Cc1ccc(C(F)(F)F)cc1)C(=O)O; NMePhe(4-Me) = CN[C@@H](Cc1ccc(C)cc1)C(=O)O; NMePhe(2-Me) = CN[C@@H](Cc1ccccc1C)C(=O)O; NMedβ3hAla = C[C@H](CC(=O)[*:2])N(C)[*:1]; NMeGly(cPent) = CN[C@H](C(=O)O)C1CCCC1; NMeY = CN[C@@H](Cc1ccc(O)cc1)C(=O)O; NMeCha = CN[C@@H](CC1CCCCC1)C(=O)O; NMeChg = CN[C@H](C(=O)O)C1CCCCC1; Piperidide(4-Me) = CC1CCN(*)CC1; NMeD = CN[C@@H](CC(=O)O)C(=O)O; NMeL = CN[C@@H](CC(C)C)C(=O)O; NMeV = CN[C@H](C(=O)O)C(C)C; d(β3hA) = C[C@@H](N)CC(=O)O; NMeA = CN[C@@H](C)C(=O)O; Piperidide = C1CCN(*)CC1; Ac5c = NC1(C(=O)O)CCCC1; Aze = O=C(O)[C@@H]1CCN1; Ac4c = NC1(C(=O)O)CCC1; Sar = CNCC(=O)O
What was measured:
[1] = target: T1, Kras and SOS1 (biotin-tagged human Kras loaded with GDP, His-tagged human SOS1) (Homo sapiens, UniProt P01116, G12D); experiment: Protein-protein interaction inhibition between Kras and SOS1 (KrasGl2D-SOS PPI) using AlphaScreen; type: binding; details: AlphaScreen; biotin-tagged human Kras loaded with GDP, His-tagged human SOS1; read-out: KRAS G12D-SOS PPI IC50
T1 construct: made in house; host or cells: E. coli (stated for Kras only)
T1 sequence (P01116 1-188 isoform P01116-2 G12D): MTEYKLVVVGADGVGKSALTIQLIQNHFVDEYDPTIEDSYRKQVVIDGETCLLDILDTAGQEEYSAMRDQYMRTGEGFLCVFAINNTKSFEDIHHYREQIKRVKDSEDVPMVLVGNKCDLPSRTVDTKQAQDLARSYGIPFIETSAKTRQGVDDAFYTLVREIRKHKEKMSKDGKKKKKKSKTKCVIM
Method in brief: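 Kras was produced in E. coli, purified, then loaded with GDP. It was paired via streptavidin acceptor beads with His-SOS1 held on nickel donor beads, and proximity signal at 520-620 nm was read after 680 nm illumination.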

[2] = tested on: Human pancreatic cancer cell line AsPC-1; experiment: Measurement of AsPC-1 cell growth inhibition (AsPC-1 CGI); type: cell-based; details: 96 h
Method in brief: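 AsPC-1 cells in 15% FBS RPMI-1640 were exposed to test compound for 96 hours at 37° C, with CellTiter-Glo as endpoint.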

SMILES	pIC50 [1]	pIC50 [2]
CC[C@H](C)[C@@H]1NC(=O)[C@H](CC(C)C)N(C)C(=O)C[C@@H](C(=O)N2CCC(C)CC2)N(C)C(=O)[C@H](C2CCCCC2)N(C)C(=O)C2(CCCC2)NC(=O)[C@@H]2CCCN2C(=O)[C@H](CCc2ccc(C(F)(F)F)c(Cl)c2)NC(=O)CN(C)C(=O)[C@H](CC2CCCCC2)N(C)C(=O)CN(C)C(=O)CN(C)C1=O [Compound 1347] ([NMeL]I[Sar][Sar][NMeCha][Sar][hPhe(3-Cl-4-CF3)]P[Ac5c][NMeChg][NMeD]-{Piperidide(4-Me)}; lactam N-11)	8.89	6.30 to 7.00
CC[C@H](C)[C@@H]1NC(=O)[C@H](CC(C)C)N(C)C(=O)C[C@@H](C(=O)N2CCCCC2)N(C)C(=O)[C@H](C(C)C)N(C)C(=O)C2(CCCC2)NC(=O)[C@@H]2CCCN2C(=O)[C@H](CCc2ccc(C(F)(F)F)c(F)c2)NC(=O)CN(C)C(=O)[C@H](CC2CCCCC2)N(C)C(=O)CN(C)C(=O)CN(C)C1=O [Compound 1454] ([NMeL]I[Sar][Sar][NMeCha][Sar][hPhe(3-F,4-CF3)]P[Ac5c][NMeV][NMeD]-Piperidide; lactam N-11)	7.96	6.30 to 7.00
CC[C@H](C)[C@@H]1NC(=O)[C@H](CC(C)C)N(C)C(=O)C[C@@H](C)NC(=O)[C@H](C(C)C)N(C)C(=O)C2(CCCC2)NC(=O)[C@@H]2CCCN2C(=O)[C@H](CCc2ccc(C(F)(F)F)c(Cl)c2)NC(=O)CN(C)C(=O)[C@H](CC2CCCCC2)N(C)C(=O)CN(C)C(=O)CN(C)C1=O [Compound 1457] (cyclo([Ac5c][NMeV][d(β3hA)][NMeL]I[Sar][Sar][NMeCha][Sar][hPhe(3-Cl-4-CF3)]P))	7.96	6.30 to 7.00
CC(C)C[C@H]1C(=O)N[C@@H](C(C)C)C(=O)N(C)CC(=O)N(C)CC(=O)N(C)[C@@H](CC2CCCCC2)C(=O)N(C)CC(=O)N[C@@H](CCc2ccc(C(F)(F)F)c(F)c2)C(=O)N2CCC[C@H]2C(=O)NC2(CCCC2)C(=O)N(C)[C@@H](CC(C)C)C(=O)N(C)[C@H](C(=O)N2CCCCC2)CC(=O)N1C [Compound 1458] ([NMeL]V[Sar][Sar][NMeCha][Sar][hPhe(3-F,4-CF3)]P[Ac5c][NMeL][NMeD]-Piperidide; lactam N-11)	8.14	6.30 to 7.00
CC[C@H](C)[C@@H]1NC(=O)[C@H](C)N(C)C(=O)C[C@@H](C)NC(=O)[C@H](C2CCCC2)N(C)C(=O)C2(CCCC2)NC(=O)[C@@H]2CCCN2C(=O)[C@H](CCc2ccc(C(F)(F)F)c(Cl)c2)NC(=O)CN(C)C(=O)[C@H](Cc2ccc(C)cc2)N(C)C(=O)[C@@H]2CCN2C(=O)CN(C)C1=O [Compound 1462] (cyclo([Ac5c][NMeGly(cPent)][d(β3hA)][NMeA]I[Sar][Aze][NMePhe(4-Me)][Sar][hPhe(3-Cl-4-CF3)]P))	9.10	6.30 to 7.00
CC[C@H](C)[C@@H]1NC(=O)[C@H](C)N(C)C(=O)C[C@@H](C)NC(=O)[C@H](C2CCCC2)N(C)C(=O)C2(CCC2)NC(=O)[C@@H]2CCCN2C(=O)[C@H](CCc2ccc(C(F)(F)F)c(Cl)c2)NC(=O)CN(C)C(=O)[C@H](Cc2ccc(C)cc2)N(C)C(=O)CN(C)C(=O)CN(C)C1=O [Compound 1466] (cyclo([Ac4c][NMeGly(cPent)][d(β3hA)][NMeA]I[Sar][Sar][NMePhe(4-Me)][Sar][hPhe(3-Cl-4-CF3)]P))	9.00	6.30 to 7.00
CC[C@H](C)[C@@H]1NC(=O)[C@H](CC(C)C)N(C)C(=O)C[C@@H](C)NC(=O)[C@H](C2CCCC2)N(C)C(=O)C2(CCC2)NC(=O)[C@@H]2CCCN2C(=O)[C@H](CCc2ccc(C(F)(F)F)c(Cl)c2)NC(=O)CN(C)C(=O)[C@H](Cc2ccc(C)cc2)N(C)C(=O)CN(C)C(=O)CN(C)C1=O [Compound 1498] (cyclo([Ac4c][NMeGly(cPent)][d(β3hA)][NMeL]I[Sar][Sar][NMePhe(4-Me)][Sar][hPhe(3-Cl-4-CF3)]P))	8.77	6.30 to 7.00
CC[C@H](C)[C@@H]1NC(=O)[C@H](CC(C)C)N(C)C(=O)C[C@@H](C)NC(=O)[C@H](C2CCCC2)N(C)C(=O)C2(CCCC2)NC(=O)[C@@H]2CCCN2C(=O)[C@H](CCc2ccc(C(F)(F)F)c(Cl)c2)NC(=O)CN(C)C(=O)[C@H](Cc2ccc(C)cc2)N(C)C(=O)[C@@H]2CCN2C(=O)CN(C)C1=O [Compound 1500] (cyclo([Ac5c][NMeGly(cPent)][d(β3hA)][NMeL]I[Sar][Aze][NMePhe(4-Me)][Sar][hPhe(3-Cl-4-CF3)]P))	8.41	6.30 to 7.00
CC[C@H](C)[C@@H]1NC(=O)[C@H](CC(C)C)N(C)C(=O)C[C@@H](C(=O)N2CCCCC2)N(C)C(=O)[C@H](CC(C)C)N(C)C(=O)C2(CCCC2)NC(=O)[C@@H]2CCCN2C(=O)[C@H](CCc2ccc(C(F)(F)F)c(F)c2)NC(=O)CN(C)C(=O)[C@H](CC2CCCCC2)N(C)C(=O)CN(C)C(=O)CN(C)C1=O [Compound 1501] ([NMeL]I[Sar][Sar][NMeCha][Sar][hPhe(3-F,4-CF3)]P[Ac5c][NMeL][NMeD]-Piperidide; lactam N-11)	7.85	6.30 to 7.00
CC[C@H](C)[C@@H]1NC(=O)[C@H](CC(C)C)N(C)C(=O)C[C@@H](C)NC(=O)[C@H](C2CCCC2)N(C)C(=O)C2(CCC2)NC(=O)[C@@H]2CCCN2C(=O)[C@H](CCc2ccc(C(F)(F)F)c(Cl)c2)NC(=O)CN(C)C(=O)[C@H](Cc2ccc(C(F)(F)F)cc2)N(C)C(=O)CN(C)C(=O)CN(C)C1=O [Compound 1508] (cyclo([Ac4c][NMeGly(cPent)][d(β3hA)][NMeL]I[Sar][Sar][NMePhe(4-CF3)][Sar][hPhe(3-Cl-4-CF3)]P))	8.89	6.30 to 7.00
CC[C@H](C)[C@@H]1NC(=O)[C@H](C)N(C)C(=O)C[C@@H](C)NC(=O)[C@H](C2CCCC2)N(C)C(=O)C2(CCCC2)NC(=O)[C@@H]2CCCN2C(=O)[C@H](CCc2ccc(C(F)(F)F)c(Cl)c2)NC(=O)CN(C)C(=O)[C@H](Cc2ccc(C(F)(F)F)cc2)N(C)C(=O)CN(C)C(=O)CN(C)C1=O [Compound 1523] (cyclo([Ac5c][NMeGly(cPent)][d(β3hA)][NMeA]I[Sar][Sar][NMePhe(4-CF3)][Sar][hPhe(3-Cl-4-CF3)]P))	9.12	6.30 to 7.00
CC[C@H](C)[C@@H]1NC(=O)[C@H](CC(C)C)N(C)C(=O)C[C@@H](C)NC(=O)[C@H](C2CCCC2)N(C)C(=O)C2(CCCC2)NC(=O)[C@@H]2CCCN2C(=O)[C@H](CCc2ccc(C(F)(F)F)c(Cl)c2)NC(=O)CN(C)C(=O)[C@H](Cc2ccc(C(F)(F)F)cc2)N(C)C(=O)CN(C)C(=O)CN(C)C1=O [Compound 1524] (cyclo([Ac5c][NMeGly(cPent)][d(β3hA)][NMeL]I[Sar][Sar][NMePhe(4-CF3)][Sar][hPhe(3-Cl-4-CF3)]P))	8.72	7.00 to 7.30
CC[C@H](C)[C@@H]1NC(=O)[C@H](CC(C)C)N(C)C(=O)C[C@@H](C)NC(=O)[C@H](C2CCCC2)N(C)C(=O)C2(CCCC2)NC(=O)[C@@H]2CCCN2C(=O)[C@H](CCc2ccc(C(F)(F)F)c(Cl)c2)NC(=O)CN(C)C(=O)[C@H](Cc2ccc(C)cc2)N(C)C(=O)[C@@H]2CCN2C(=O)[C@H](C)N(C)C1=O [Compound 1537] (cyclo([Ac5c][NMeGly(cPent)][d(β3hA)][NMeL]I[NMeA][Aze][NMePhe(4-Me)][Sar][hPhe(3-Cl-4-CF3)]P))	8.41	7.00 to 7.30
CC[C@H](C)[C@@H]1NC(=O)[C@H](CC(C)C)N(C)C(=O)C[C@@H](C)NC(=O)[C@H](C2CCCC2)N(C)C(=O)C2(CCC2)NC(=O)[C@@H]2CCCN2C(=O)[C@H](CCc2ccc(C(F)(F)F)c(Cl)c2)NC(=O)CN(C)C(=O)[C@H](CC2CCCCC2)N(C)C(=O)CN(C)C(=O)CN(C)C1=O [Compound 1544] (cyclo([Ac4c][NMeGly(cPent)][d(β3hA)][NMeL]I[Sar][Sar][NMeCha][Sar][hPhe(3-Cl-4-CF3)]P))	8.25	6.30 to 7.00
CC[C@H](C)[C@@H]1NC(=O)[C@H](CC(C)C)N(C)C(=O)C[C@@H](C)N(C)C(=O)[C@H](C(C)C)N(C)C(=O)C2(CCCC2)NC(=O)[C@@H]2CCCN2C(=O)[C@H](CCc2ccc(C(F)(F)F)c(Cl)c2)NC(=O)CN(C)C(=O)[C@H](Cc2ccc(C)cc2)N(C)C(=O)CN(C)C(=O)CN(C)C1=O [Compound 1549] (cyclo([Ac5c][NMeV][NMedβ3hAla][NMeL]I[Sar][Sar][NMePhe(4-Me)][Sar][hPhe(3-Cl-4-CF3)]P))	8.44	7.00 to 7.30
CC[C@H](C)[C@@H]1NC(=O)[C@H](CC(C)C)N(C)C(=O)C[C@@H](C)N(C)C(=O)[C@H](C(C)C)N(C)C(=O)C2(CCCC2)NC(=O)[C@@H]2CCCN2C(=O)[C@H](CCc2ccc(C(F)(F)F)c(Cl)c2)NC(=O)CN(C)C(=O)[C@H](Cc2ccccc2C)N(C)C(=O)CN(C)C(=O)CN(C)C1=O [Compound 1550] (cyclo([Ac5c][NMeV][NMedβ3hAla][NMeL]I[Sar][Sar][NMePhe(2-Me)][Sar][hPhe(3-Cl-4-CF3)]P))	7.72	7.00 to 7.30
CC[C@H](C)[C@@H]1NC(=O)[C@H](CC(C)C)N(C)C(=O)C[C@@H](C)N(C)C(=O)[C@H](C(C)C)N(C)C(=O)C2(CCCC2)NC(=O)[C@@H]2CCCN2C(=O)[C@H](CCc2ccc(C(F)(F)F)c(Cl)c2)NC(=O)CN(C)C(=O)[C@H](Cc2ccc(OC)cc2)N(C)C(=O)CN(C)C(=O)CN(C)C1=O [Compound 1551] (cyclo([Ac5c][NMeV][NMedβ3hAla][NMeL]I[Sar][Sar][NMeY](Me)[Sar][hPhe(3-Cl-4-CF3)]P))	8.31	7.00 to 7.30
CC[C@H](C)[C@@H]1NC(=O)[C@H](CC(C)C)N(C)C(=O)C[C@@H](C(=O)N2CCCCC2)N(C)C(=O)[C@H](C(C)C)N(C)C(=O)C2(CCCC2)NC(=O)[C@@H]2CCCN2C(=O)[C@H](CCc2ccc(C(F)(F)F)c(Cl)c2)NC(=O)CN(C)C(=O)[C@H](Cc2cccc(C(F)(F)F)c2)N(C)C(=O)CN(C)C(=O)CN(C)C1=O [Compound 1555] ([NMeL]I[Sar][Sar][NMePhe(3-CF3)][Sar][hPhe(3-Cl-4-CF3)]P[Ac5c][NMeV][NMeD]-Piperidide; lactam N-11)	8.21	6.30 to 7.00
